Measurements published in patent publication US20200164078A1, “APPLICABLE CHEMICAL COMPOSITION COMPRISING AN AGENT CONJUGATED TO A HYDROPHOBIC MOIETY AND A CARRIER” (TECHNISCHE UNIVERSITEIT EINDHOVEN, priority 2017, published 2020).
Entries after “also recorded” stand apart in the source; their conditions may differ.

Experiments:
[1] = cited from earlier work
[2] = Release from 10 wt % bifunctional UPy-PEG10k hydrogel into PBS; format: physicochemical
Protocol: The UPy-PEG10k liquid carrier composition was prepared by dissolving the UPy-PEG10k powder in PBS at elevated pH by stirring at 70° C. for 1 h using a magnetic stirrer (e.g. 10 mg in 90 μl PBS pH 11.7 for a 10 wt % hydrogel). Afterwards the viscous solution was cooled to RT with a resulting pH of approximately 9.0. […] The obtained composition is a liquid composition at this pH.
100 μL of the solutions were transferred to Millicell hanging cell culture inserts (PIEP12R48/MCEP24H48) and immediately placed in a 24-well plate with 600 μL PBS per well. Contact with the neutral PBS through the membrane of the insert results in gelation of the liquid carrier, forming the hydrogel. At set time-points the PBS was refreshed and the removed PBS was analyzed for MMC or MPC content. Analysis was performed by measuring UV absorption and converted to concentration via predetermined standard curves. […] […]. Release of MPC can be correlated to the erosion of the hydrogel. The initial goal to couple cholesterol to MMC to slow down the release from the hydrogel is accomplished hereby.

CC531 cells = conditions: approximately 24 hour incubation; for Efficacy: MTT; for EC50: global sigmoidal fit of three assays, n=8, ±SD
Protocol: After approximately 24 hour incubation in the cell incubator, 25 μL of freshly prepared MTT solution (5 mg/mL in PBS, filtered through 0.2 μm filter) was added to the wells and incubated for 2 hours. The medium was then completely removed and replaced with 125 μL 0.04 M HCl in isopropanol and incubated for 1 hour. After gently mixing, 100 μl of the isopropanol solution was transferred to a Costar EIA/RIA 96 transparent flat bottom wells plate. The absorbance was measured at 570 nm with 650 nm as reference. Absorbance of MTT was read out on a Tecan Saffire 2 plate reader and Tecan Spark 10M plate reader. Values were normalized to untreated cells. The complete assay was performed three times for CC531 cells. All data sets were used together to fit a global sigmoidal dose response curve with a shared slope and center, giving one EC50 per cell line. A concatenate fit was plotted through the MTT results for visualization. […] Every experiment n=8, ±SD.

[3] = Stability measurements by UV absorption in PBS; conditions: 200 mg/L, day 0-13

In the case of `CC(C)CCC[C@@H](C)[C@H]1CC[C@H]2[C@@H]3CC=C4C[C@@H](O)CC[C@]4(C)[C@H]3CC[C@]12C` [Cholesterol], the Water solubility [1] is listed as “Less than 0.000095 mg/mL)”.
In the case of `COc1cccc2c1C(=O)c1c(O)c3c(c(O)c1C2=O)C[C@@](O)(C(C)=O)C[C@@H]3O[C@H]1C[C@H](N)[C@H](O)[C@H](C)O1` [Daunorubicin], the Water solubility [1] is listed as 39 µg/mL.
In the case of `COc1cccc2c1C(=O)c1c(O)c3c(c(O)c1C2=O)C[C@@](O)(C(=O)CO)C[C@@H]3O[C@H]1C[C@H](N)[C@H](O)[C@H](C)O1` [Doxorubicin], the Water solubility [1] is listed as 1180 µg/mL.
In the case of `Nc1ccn([C@@H]2O[C@H](CO)[C@@H](O)C2(F)F)c(=O)n1` [Gemcitabine], the Water solubility [1] is listed as 51300 µg/mL.
In the case of `CO[C@@]12[C@H](COC(N)=O)C3=C(C(=O)C(C)=C(N)C3=O)N1C[C@@H]1N[C@@H]12` [MMC, Mitomycin C], the “Release (%)” value ([2]; 0.3 mM in gel, time 0.05 day) is reported as 38.93%, the “Release (%)” value ([2]; 0.3 mM in gel, time 0.21 day) is reported as 69.58% and the “Release (%)” value ([2]; 0.3 mM in gel, time 1.00 day) is reported as 86.44%. For the same compound, the “Release (%)” value ([2]; 3 mM in gel, time 0.06 day) was 34.09%, the “Release (%)” value ([2]; 3 mM in gel, time 0.17 day) was 58.33% and the “Release (%)” value ([2]; 3 mM in gel, time 0.38 day) was 79.92%. For the same compound, the “Release (%)” value ([2]; 3 mM in gel, time 1.00 day) was 95.83%, the “Release (%)” value ([2]; 3 mM in gel, time 2.00 day) was 102.65% and the “Time of release from the hydrogel” value ([2]; 10 wt % UPy-PEG10k hydrogel, diffusion kinetics) was “approximately 24 hours”. For the same compound, the Efficacy (CC531 cells) was “approximately 100%”, the EC50 (CC531 cells) was 19.6 ± 3.2 µM and the “Stability (UV absorption spectra)” value ([3]; pH 6.5, 37° C.) was “unstable; also recorded: degrades”. The “Stability (UV absorption spectra)” value ([3]; pH 7.4, 4° C.) was “stable” and the “Stability (UV absorption spectra)” value ([3]; pH 7.4, 37° C.) was “stable”.
For Mitomycin-PEG24-Cholesterol [MPC], the Efficacy (CC531 cells) was “approximately 100%” and the EC50 (CC531 cells) was 3.8 ± 1.1 µM.
